# Measured values taken from PubChem BioAssay (NCI).
#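 Exposure lasted 48 hours, with cells grown in 96-well plates and compounds tested at five concentrations. GI50 = concentration required for 50% inhibition of growth. TGI denotes the concentration required for complete inhibition of growth.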
# Legend:
# Assay in all cases: NCI tumour cell line growth inhibition, 48 h
# [1] = tested on: BT-549 breast
# [2] = tested on: HCC-2998 colon
# [3] = tested on: HS 578T breast
# [4] = tested on: HT29 colon
# [5] = tested on: M14 melanoma
# [6] = tested on: MCF7 breast
# [7] = tested on: RPMI-8226 leukemia
# [8] = tested on: SF-295 CNS
# [9] = tested on: SK-MEL-5 melanoma
# [10] = tested on: SNB-75 CNS
SMILES,GI50 [1] [µM],TGI [1] [µM],GI50 [2] [µM],TGI [2] [µM],GI50 [3] [µM],TGI [3] [µM],GI50 [4] [µM],TGI [4] [µM],GI50 [5] [µM],TGI [5] [µM],GI50 [6] [µM],TGI [6] [µM],GI50 [7] [µM],TGI [7] [µM],GI50 [8] [µM],TGI [8] [µM],GI50 [9] [µM],TGI [9] [µM],GI50 [10] [µM],TGI [10] [µM]
CCOC(=O)c1c(C)n2c(=O)cc(C)c3c(OC(C)=O)c(OC(C)=O)cc1c32,6.21,46.1,2.45,15.8,4.52,> 65.2,10.9,47.5,3.96,18.2,3.27,14,2.75,8.33,5.2,45.2,3.78,13.4,6.08,> 28.3
Clc1ccc(-c2nn3ncccc3c2-c2ccnc(Nc3ccccc3)n2)cc1,10.7,> 25,10.9,> 25,6.4,> 22,6.51,> 25,> 14.8,> 25,7.17,> 25,11.7,> 25,9.67,> 25,> 12.4,> 25,6.31,> 25
CCCCN(CCCC)CCCN=c1nc2c(c(N)n1-c1ccccc1)c(=S)n(-c1ccccc1)c(=S)n2-c1ccccc1,1.67,3.38,0.825,2.52,0.78,3.16,0.276,0.784,0.206,0.424,0.361,1.51,0.159,0.327,1.4,3,1.02,2.3,0.719,2.11
Cc1nc(/N=C(\N)NC(=O)Nc2ccccc2Cl)sc1C,0.637,10.3,1.25,> 100,0.548,5.55,0.333,5.32,0.314,18.7,0.359,> 100,0.406,7.65,0.363,2.7,0.508,7.39,0.226,0.91
N#Cc1c(NC(=O)CN2CCOCC2)sc2c1CCCC2,> 25,> 25,> 25,> 25,> 25,> 25,> 25,> 25,> 25,> 25,> 25,> 25,> 25,> 25,> 25,> 25,> 25,> 25,> 25,> 25
